According to patent publication US20090311246A1, “Method of Enhancing Remyelination in Demyelinating Diseases of the Central Nervous System” (priority 2008, published 2009):

B1: Bovine MBP: bovine myelin basic protein (protein)
chain: AAQKRPSQRSKYLASASTMDHARHGFLPRHRDTGILDSLGRFFGSDRGAPKRGSGKDGHHAARTTHYGSLPQKAQGHRPQDENPVVHFFKNIVTPRTPPPSQGKGRGLSLSRFSWGAEGQKPGFGYGGRASDYKSAHKGLKGHDAQGTLSKIFKLGGRDSRSGSPMARR
B2: MBP Protein: myelin basic protein (protein, UniProt P02686 1-304, looked up)
Myelin basic protein: MGNHAGKRELNAEKASTNSETNRGESEKKRNLGELSRTTSEDNEVFGEADANQNNGTSSQDTAVTDSKRTADPKNAWQDAHPADPGSRPHLIRLFSRDAPGREDNTFKDRPSESDELQTIQEDSAATSESLDVMASQKRPSQRHGSKYLATASTMDHARHGFLPRHRDTGILDSIGRFFGGDRGAPKRGSGKDSHHPARTAHYGSLPQKSHGRTQDENPVVHFFKNIVTPRTPPPSQGKGRGLSLSRFSWGAEGQRPGFGYGGRASDYKSAHKGFKGVDAQGTLSKIFKLGGRDSRSGSPMARR
B3: rMOG: recombinant MOG (protein, UniProt Q16653 30-247, looked up)
Myelin-oligodendrocyte …: GQFRVIGPRHPIRALVGDEVELPCRISPGKNATGMEVGWYRPPFSRVVHLYRNGKDQDGDQAPEYRGRTELLKDAIGEGKVTLRIRNVRFSDEGGFTCFFRDHSYQEEAAMELKVEDPFYWVSPGVLVLLAVLPVLLLQITVGLIFLCLQYRLRGKLRAEIENLHRTFDPHFLRVPCWKITLFVIVPVLGPLVALIICYNWLHRRLAGQFLEELRNPF
B4: MOG Protein: myelin oligodendrocyte glycoprotein (protein, UniProt Q16653 30-247, looked up)
Myelin-oligodendrocyte …: B3 Myelin-oligodendrocyte …

Key:
[1] = test system: sera from SFV-infected B6 mice; assay type: binding; conditions: for Dh / D0 (Ratio): OD of highest day (day 15 or 21) over day 0, SFV-infected sera; for Dh−D0 (difference): OD of highest day minus day 0, SFV-infected sera; for Net change in the levels of antibody (ΔOD), D7-9 / Net change in the levels of antibody (ΔOD), D14-16 / Net change in the levels of antibody (ΔOD), D21-23 / Net change in the levels of antibody (ΔOD), D31-35: SFV-infected mice sera, day 0 OD subtracted; for Net change in the levels of antibody (ΔOD), D7-9: days 7-9 pi; for Net change in the levels of antibody (ΔOD), D14-16: days 14-16 pi; for Net change in the levels of antibody (ΔOD), D21-23: days 21-23 pi; for Net change in the levels of antibody (ΔOD), D31-35: days 31-35 pi; for Reactivity of sera from SFV-infected B6 mice with the antigen in ELISA: vs day 0
Description: To measure the antibody response of both WT and γδ KO mice against SFV and two of the peptides of the SFV envelope protein, E2, an indirect ELISA was performed. Sera were pooled from 4-6 SFV-infected WT, and 3 KO, mice on days 0, 7, 14, 21 and 35 pi. Briefly, Immunolon 2HB 96 well microtiter plates (VWR, Bridge Port, N.J.) were coated with 1 μg/well of each antigen in 100 μl/well carbonate buffer overnight at room temperature. After washing, the plates were blocked and serum samples were added. […] After washing, biotinylated goat anti-mouse Igs (BD Pharmingen, Torreyana, Calif.), Strepavidin conjugated to Horse Radish Peroxidase (Vector Laboratories, Burlingame, Calif.), and OPD substrate (Sigma, St. Louis, Mo.) were used, as previously described (4, 9). […] Values were considered to be positive when they were >0.3 OD units and exceeded the mean value plus three standard deviations for antibody response on day 0 pi of mice of the same strain. […]
In some instances day 0 OD values were high, thus making the differences appear small. Therefore, to account for such discrepancy, we also determined the ratio of the highest day (day 15 or 21) over day 0.

[2] = test system: Rabbit Anti-SFV polyclonal antibody; test: Indirect ELISA of rabbit anti-SFV polyclonal IgG against viral and myelin antigens; assay type: binding; conditions: for Rabbit Anti-SFV Ab, OD at 490 nm: 10^−2 diluted, indirect ELISA; for Immunoreactivity of IgG fraction of serum from rabbits immunized with UV-inactivated SFV: ELISA; for OD Difference: Rabbit Anti-SFV Ab minus Normal Rabbit Serum
Description: The total IgG fraction was commercially prepared (Strategic Biosolutions, Ramona, Calif.) from pooled sera of 3 rabbits immunized once with UV-inactivated SFV (A774 strain) emulsified in CFA and boosted 3 times with antigen in IFA at weeks 3, 5, and 7. The IgG fraction of the pooled antisera was purified by ion-exchange chromatography and contained 8.7 mg IgG/ml of PBS. Antibody activities to SFV and peptides of SFV, to E2, and to recombinant ® MOG and its peptides were confirmed by ELISA. Normal rabbit IgG, isolated from pooled normal rabbit sera by ion-exchange chromatography (Signa Chemical Co., St. Louis, Mo.), was dissolved in saline. Protein concentration was determined by the Bradford assay (Sigma), using normal rabbit IgG as the standard. The IgG solutions were diluted to 3 mg protein/ml in saline and sterilized by passage through a 0.22 μm filter (Millipore Corp., Bedford, Mass.).
To measure the antibody response of both WT and γδ KO mice against SFV and two of the peptides of the SFV envelope protein, E2, an indirect ELISA was performed. Sera were pooled from 4-6 SFV-infected WT, and 3 KO, mice on days 0, 7, 14, 21 and 35 pi. Briefly, Immunolon 2HB 96 well microtiter plates (VWR, Bridge Port, N.J.) were coated with 1 μg/well of each antigen in 100 μl/well carbonate buffer overnight at room temperature. After washing, the plates were blocked and serum samples were added. […] After washing, biotinylated goat anti-mouse Igs (BD Pharmingen, Torreyana, Calif.), Strepavidin conjugated to Horse Radish Peroxidase (Vector Laboratories, Burlingame, Calif.), and OPD substrate (Sigma, St. Louis, Mo.) were used, as previously described (4, 9). […] Values were considered to be positive when they were >0.3 OD units and exceeded the mean value plus three standard deviations for antibody response on day 0 pi of mice of the same strain.
The polyclonal rabbit anti SFV antibody was commercially prepared (Strategic Biosolutions, Ramona, Calif.) from pooled sera of 3 rabbits, immunized once with UV-inactivated SFV (A774 strain) emulsified in CFA and boosted 3 times with antigen in IFA at weeks 3, 5, and 7.

Normal Rabbit Serum = test: Indirect ELISA of normal rabbit serum/IgG against viral and myelin antigens; assay type: binding; conditions: 10^−2 diluted
[3] = test system: sera from SFV-infected WT and γδ KO mice; test: ELISA of sera from SFV-infected WT and γδ KO mice against SFV, E2 peptides, PPD and rMOG; assay type: binding
B6 mice = conditions: ref. (4); cited from earlier work

Molecule	Dh / D0 (Ratio) [1]	Dh−D0 (difference) [1]	Net change in the levels of antibody (ΔOD), D7-9 [1]	Net change in the levels of antibody (ΔOD), D14-16 [1]	Net change in the levels of antibody (ΔOD), D21-23 [1]	Net change in the levels of antibody (ΔOD), D31-35 [1]	Reactivity of sera from SFV-infected B6 mice with the antigen in ELISA [1]	Rabbit Anti-SFV Ab, OD at 490 nm [2]	OD Difference [2]	Normal Rabbit Serum, OD at 490 nm (Normal Rabbit Serum)	further results
DEAELPSRISPGKNA [MOG 18-32]	3.2	0.919	0.34 ± 0.31 ΔOD	0.75 ± 0.23 ΔOD	0.91 ± 0.15 ΔOD	0.91 ± 0.36 ΔOD	reacted significantly	0.907 OD	0.647 OD	0.260 OD	Immunoreactivity of IgG fraction of serum from rabbits immunized with UV-inactivated SFV [2]: Cross-reactivity
EGVNDNEEGFFSAR [FB, Fibrinopeptide B, 1-14, negative control peptide]	1.26	0.068	0.06 ± 0.07 ΔOD	0.05 ± 0.07 ΔOD	0.05 ± 0.08 ΔOD	0.08 ± 0.09 ΔOD					
GKDSHTRTTHYGS [MBP 56-68, mouse MBP 56-68 peptide, mimicked by E2 137-151]	5.37	0.824	1.10 ± 0.04 ΔOD	0.83 ± 0.10 ΔOD	1.07 ± 0.12 ΔOD	0.55 ± 0.18 ΔOD	reacted significantly	0.852 OD	0.691 OD	0.195 OD	Immunoreactivity of IgG fraction of serum from rabbits immunized with UV-inactivated SFV [2]: Cross-reactivity
H-IQDTRNAVRACRIQYHHD-OH [E2 115-129, reference compound]	5.28	0.458	0.82 ± 0.40 ΔOD	0.91 ± 0.14 ΔOD	0.95 ± 0.22 ΔOD	0.85 ± 0.07 ΔOD	reacted				Net change in the level of antibody, D0 WT ([3]; WT mice, day 0): 0 nano gr; Net change in the level of antibody, D7 WT ([3]; WT mice, day 7 pi, ± SD): 69 ± 29 nano gr; Net change in the level of antibody, D14 WT ([3]; WT mice, day 14 pi, ± SD): 83 ± 16 nano gr; Net change in the level of antibody, D21 WT ([3]; WT mice, day 21 pi, ± SD): 90 ± 20 nano gr; Net change in the level of antibody, D35 WT ([3]; WT mice, day 35 pi, ± SD): 73 ± 14 nano gr; Net change in the level of antibody, D0 KO ([3]; γδ KO mice, day 0): 0 nano gr; Net change in the level of antibody, D7 KO ([3]; γδ KO mice, day 7 pi, ± SD): 65 ± 35 nano gr; Net change in the level of antibody, D14 KO ([3]; γδ KO mice, day 14 pi, ± SD): 34 ± 24 nano gr; Net change in the level of antibody, D21 KO ([3]; γδ KO mice, day 21 pi, ± SD): 55 ± 20 nano gr; Net change in the level of antibody, D35 KO ([3]; γδ KO mice, day 35 pi, ± SD): 29 ± 22 nano gr; Reactivity of sera from SFV-infected γδ KO mice ([3]; γδ KO, sera 1:80): lower, but not significantly different than WT; Histopathology after inoculation with the peptide (literature) (B6 mice): induced vaccuolation in myelin
NH2-MEVGWYRSPFSRVVHLYRNGK-OH (H-MEVGWYRSPFSRVVHLYRNGK-OH) [MOG 35-55, myelin oligodendrocyte glycoprotein (MOG) peptide 35-55]	5.11	0.362	055 ± 0.08 ΔOD	0.78 ± 0.08 ΔOD	0.82 ± 0.05 ΔOD	0.78 ± 0.07 ΔOD		0.184 OD	0.177 OD	0.007 OD	
THYGSLPQKSQR (GSGKDSHTRTTH) [MBP 64-75, myelin basic protein peptide 64-75]	2.93	0.375									
B1								0.622 OD	0.339 OD	0.283 OD	
B2	2.42	0.967	0.53 ± 0.11 ΔOD	1.04 ± 0.24 ΔOD	1.12 ± 0.31 ΔOD	1.00 ± 0.32 ΔOD	reacted significantly				
B3								0.359 OD	0.146 OD	0.213 OD	Reactivity of sera from both SFV-infected WT and KO groups ([3]; WT and KO, days 7 to 35 pi): twice as the background level
B4	4.1	0.89	0.47 ± 0.21 ΔOD	0.84 ± 0.18 ΔOD	0.91 ± 0.11 ΔOD	0.96 ± 0.07 ΔOD	reacted significantly				
